Test results: ChEMBL document CHEMBL1139888, “Fungicidal activities of dihydroferulic acid alkyl ester analogues” (2007)
Values after ≈ are worked out from the molar mass of the structure shown.

Tests used:
Type in all cases: functional
Saccharomyces cerevisiae [1] = test: Growth inhibition of wild type Saccharomyces cerevisiae BY47411 at 5 mM after 48 hrs relative to control
Saccharomyces cerevisiae [2] = test: Growth inhibition of wild type Saccharomyces cerevisiae BY47411 at 6.4 mM after 48 hrs relative to control
Saccharomyces cerevisiae [3] = test: Antifungal activity against wild type Saccharomyces cerevisiae BY47411 after 24 hrs
Aspergillus fumigatus [4] = test: Growth inhibition of wild type Aspergillus fumigatus AF293 at 0.8 mM after 4 days; details: AF293, 96 h
Aspergillus fumigatus [5] = test: Antifungal activity against Aspergillus fumigatus AF293
Saccharomyces cerevisiae [6] = test: Antifungal activity against wild type Saccharomyces cerevisiae BY47411 assessed as cell number at 0.8 mM after 48 hrs
Saccharomyces cerevisiae [7] = test: Growth inhibition of wild type Saccharomyces cerevisiae BY47411 at 0.8 mM after 48 hrs relative to control
Aspergillus flavus [8] = test: Antifungal activity against Aspergillus flavus NRRL3357
Aspergillus flavus [9] = test: Fungicidal activity against wild type Aspergillus flavus NRRL3357 assessed as radial growth on potato dextrose agar plate at 0.2 mM after 4 days
Aspergillus fumigatus [10] = test: Fungicidal activity against wild type Aspergillus fumigatus AF293 assessed as radial growth on potato dextrose agar plate at 3.2 mM after 4 days
Saccharomyces cerevisiae [11] = test: Antifungal activity against Saccharomyces cerevisiae bck1delta deletion mutant assessed as cell number at 3.2 mM after 48 hrs
Aspergillus fumigatus [12] = test: Growth inhibition of wild type Aspergillus fumigatus AF293 at 0.4 mM after 4 days; details: AF293, 96 h
Aspergillus fumigatus [13] = test: Fungicidal activity against wild type Aspergillus fumigatus AF293 assessed as radial growth on potato dextrose agar plate at 0.2 mM after 4 days
Aspergillus fumigatus [14] = test: Growth inhibition of wild type Aspergillus fumigatus AF293 at 0.2 mM after 4 days; details: AF293, 96 h
Aspergillus fumigatus [15] = test: Fungicidal activity against wild type Aspergillus fumigatus AF293 assessed as radial growth on potato dextrose agar plate at 6.4 mM after 4 days
Aspergillus flavus [16] = test: Growth inhibition of wild type Aspergillus flavus NRRL3357 at 3.2 mM after 4 days; details: NRRL3357, 96 h
Aspergillus flavus [17] = test: Fungicidal activity against wild type Aspergillus flavus NRRL3357 assessed as radial growth on potato dextrose agar plate at 6.4 mM after 4 days
Aspergillus flavus [18] = test: Growth inhibition of wild type Aspergillus flavus NRRL3357 at 6.4 mM after 4 days; details: NRRL3357, 96 h
Saccharomyces cerevisiae [19] = test: (§1) Growth inhibition of Saccharomyces cerevisiae bck1delta deletion mutant at 3.2 mM relative to control after 48 hrs
Saccharomyces cerevisiae [20] = test: Antifungal activity against wild type Saccharomyces cerevisiae BY47411 assessed as cell number at 3.2 mM after 48 hrs
Aspergillus flavus [21] = test: Fungicidal activity against wild type Aspergillus flavus NRRL3357 assessed as radial growth on potato dextrose agar plate at 0.1 mM after 4 days
Aspergillus fumigatus [22] = test: Growth inhibition of wild type Aspergillus fumigatus AF293 at 6.4 mM after 4 days; details: AF293, 96 h
Aspergillus flavus [23] = test: Fungicidal activity against wild type Aspergillus flavus NRRL3357 assessed as radial growth on potato dextrose agar plate at 0.8 mM after 4 days
Saccharomyces cerevisiae [24] = test: Antifungal activity against wild type Saccharomyces cerevisiae BY47411 assessed as cell number at 6.4 mM after 48 hrs
Aspergillus flavus [25] = test: Growth inhibition of wild type Aspergillus flavus NRRL3357 at 0.2 mM after 4 days; details: NRRL3357, 96 h
Aspergillus flavus [26] = test: Growth inhibition of wild type Aspergillus flavus NRRL3357 at 0.4 mM after 4 days; details: NRRL3357, 96 h
Aspergillus fumigatus [27] = test: Fungicidal activity against wild type Aspergillus fumigatus AF293 assessed as radial growth on potato dextrose agar plate at 1.6 mM after 4 days
Aspergillus fumigatus [28] = test: Fungicidal activity against wild type Aspergillus fumigatus AF293 assessed as radial growth on potato dextrose agar plate at 0.4 mM after 4 days
Aspergillus fumigatus [29] = test: Growth inhibition of wild type Aspergillus fumigatus AF293 at 1.6 mM after 4 days; details: AF293, 96 h
Saccharomyces cerevisiae [30] = test: Growth inhibition of wild type Saccharomyces cerevisiae BY47411 at 1.6 mM after 48 hrs relative to control
Aspergillus fumigatus [31] = test: Growth inhibition of wild type Aspergillus fumigatus AF293 at 3.2 mM after 4 days; details: AF293, 96 h
Saccharomyces cerevisiae [32] = test: Antifungal activity against Saccharomyces cerevisiae bck1delta deletion mutant assessed as cell number at 1.6 mM after 48 hrs
Aspergillus flavus [33] = test: Fungicidal activity against wild type Aspergillus flavus NRRL3357 assessed as radial growth on potato dextrose agar plate at 0.4 mM after 4 days
Aspergillus fumigatus [34] = test: Fungicidal activity against wild type Aspergillus fumigatus AF293 assessed as radial growth on potato dextrose agar plate at 0.1 mM after 4 days
Saccharomyces cerevisiae [35] = test: Antifungal activity against wild type Saccharomyces cerevisiae BY47411 assessed as cell number at 1.6 mM after 48 hrs
Aspergillus fumigatus [36] = test: Growth inhibition of wild type Aspergillus fumigatus AF293 at 0.1 mM after 4 days; details: AF293, 96 h
Aspergillus flavus [37] = test: Growth inhibition of wild type Aspergillus flavus NRRL3357 at 0.8 mM after 4 days; details: NRRL3357, 96 h
Aspergillus flavus [38] = test: Fungicidal activity against wild type Aspergillus flavus NRRL3357 assessed as radial growth on potato dextrose agar plate at 3.2 mM after 4 days
Aspergillus flavus [39] = test: Growth inhibition of wild type Aspergillus flavus NRRL3357 at 0.1 mM after 4 days; details: NRRL3357, 96 h
Aspergillus flavus [40] = test: Growth inhibition of wild type Aspergillus flavus NRRL3357 at 1.6 mM after 4 days; details: NRRL3357, 96 h
Aspergillus fumigatus [41] = test: Fungicidal activity against wild type Aspergillus fumigatus AF293 assessed as radial growth on potato dextrose agar plate at 0.8 mM after 4 days
Saccharomyces cerevisiae [42] = test: Growth inhibition of wild type Saccharomyces cerevisiae BY47411 at 3.2 mM after 48 hrs relative to control
Saccharomyces cerevisiae [43] = test: as §1; remark: listed apart in the source
Aspergillus flavus [44] = test: Fungicidal activity against wild type Aspergillus flavus NRRL3357 assessed as radial growth on potato dextrose agar plate at 1.6 mM after 4 days

For CCCCCCCCCCOC(=O)CCc1ccc(O)c(OC)c1 [DIHYDROFERULIC ACID DECYL ESTER], the inhibition at 5000 µM (Saccharomyces cerevisiae [1]) was 2.8%.
CCOC(=O)CCc1ccc(O)c(OC)c1 [DIHYDROFERULIC ACID ETHYL ESTER] showed an inhibition at 6400 µM (Saccharomyces cerevisiae [2]) of 87%, an MIC50 (Saccharomyces cerevisiae [3]) of 4 mM (≈ 897 µg/mL) and an MIC90 (Saccharomyces cerevisiae [3]) greater than 6.4 mM. It also gave an inhibition at 5000 µM (Saccharomyces cerevisiae [1]) of 98.7%.
With COC(=O)CCc1ccc(O)c(OC)c1 [DIHYDROFERULIC ACID METHYL ESTER] the MIC50 (Saccharomyces cerevisiae [3]) was 2.1 mM (≈ 441 µg/mL), the MIC90 (Saccharomyces cerevisiae [3]) was 5.6 mM (≈ 1180 µg/mL) and the inhibition at 5000 µM (Saccharomyces cerevisiae [1]) was 100%.
With CCCCCCCCOC(=O)CCc1ccc(O)c(OC)c1 [DIHYDROFERULIC ACID OCTYL ESTER] the inhibition at 5000 µM (Saccharomyces cerevisiae [1]) was 6.2%.
In the case of CCCOC(=O)CCc1ccc(O)c(OC)c1 [DIHYDROFERULIC ACID PROPYL ESTER], the inhibition at 6400 µM (Saccharomyces cerevisiae [2]) is reported as 100%, the inhibition at 800 µM (Aspergillus fumigatus [4]) is reported as 17.1% and the MIC50 (Aspergillus fumigatus [5]) is reported as 2.1 mM (≈ 500 µg/mL). It also gave an MIC50 (Saccharomyces cerevisiae [3]) of 1.5 mM (≈ 357 µg/mL), an MIC90 (Saccharomyces cerevisiae [3]) of 4.5 mM (≈ 1070 µg/mL) and an Activity (Saccharomyces cerevisiae [6]) of 2.99. It also gave an inhibition at 800 µM (Saccharomyces cerevisiae [7]) of 32.7%, an MIC50 (Aspergillus flavus [8]) of 2.9 mM (≈ 691 µg/mL) and an Activity (Aspergillus flavus [9]) of 3.1 cm. For the same compound, the Activity (Aspergillus fumigatus [10]) was 1 cm, the Activity (Saccharomyces cerevisiae [11]) was 0.32 and the inhibition at 400 µM (Aspergillus fumigatus [12]) was 10.7%. The Activity (Aspergillus fumigatus [13]) was 4.6 cm, the inhibition at 200 µM (Aspergillus fumigatus [14]) was 2.2% and the Activity (Aspergillus fumigatus [15]) was 0 cm. The inhibition at 3200 µM (Aspergillus flavus [16]) was 53.2%, the Activity (Aspergillus flavus [17]) was 0 cm and the inhibition at 6400 µM (Aspergillus flavus [18]) was 100%. For the same compound, the inhibition at 3200 µM (Saccharomyces cerevisiae [19]) was 93%, the Activity (Saccharomyces cerevisiae [20]) was 0.03 and the Activity (Aspergillus flavus [21]) was 3.2 cm. For the same compound, the inhibition at 6400 µM (Aspergillus fumigatus [22]) was 100%, the Activity (Aspergillus flavus [23]) was 2.8 cm and the Activity (Saccharomyces cerevisiae [24]) was 0. The inhibition at 200 µM (Aspergillus flavus [25]) was 3.2%, the inhibition at 400 µM (Aspergillus flavus [26]) was 6.3% and the Activity (Aspergillus fumigatus [27]) was 2.7 cm. The Activity (Aspergillus fumigatus [28]) was 4.2 cm, the inhibition at 1600 µM (Aspergillus fumigatus [29]) was 42.6% and the inhibition at 1600 µM (Saccharomyces cerevisiae [30]) was 57.4%. For the same compound, the inhibition at 3200 µM (Aspergillus fumigatus [31]) was 78.8%, the Activity (Saccharomyces cerevisiae [32]) was 1.07 and the Activity (Aspergillus flavus [33]) was 3 cm. For the same compound, the Activity (Aspergillus fumigatus [34]) was 4.7 cm, the Activity (Saccharomyces cerevisiae [35]) was 1.89 and the inhibition at 100 µM (Aspergillus fumigatus [36]) was 0%. For the same compound, the inhibition at 800 µM (Aspergillus flavus [37]) was 12.5%, the Activity (Aspergillus flavus [38]) was 1.5 cm and the inhibition at 100 µM (Aspergillus flavus [39]) was 0%. The inhibition at 1600 µM (Aspergillus flavus [40]) was 28.2%, the Activity (Aspergillus fumigatus [41]) was 3.9 cm and the inhibition at 3200 µM (Saccharomyces cerevisiae [42]) was 99.3%. It also gave an inhibition at 5000 µM (Saccharomyces cerevisiae [1]) of 99.4%, an inhibition at 3200 µM (Saccharomyces cerevisiae [43]) of 76.8% and an Activity (Aspergillus flavus [44]) of 2.3 cm.
COc1cc(CCC(=O)O)ccc1O [DIHYDROFERULIC ACID] gave an MIC50 (Saccharomyces cerevisiae [3]) of 6.4 mM (≈ 1260 µg/mL) and an inhibition at 5000 µM (Saccharomyces cerevisiae [1]) of 6.4%.
CCCCCCOC(=O)CCc1ccc(O)c(OC)c1 [HEXYLHYDROFERULATE] gave an inhibition at 6400 µM (Saccharomyces cerevisiae [2]) of 93.7%, an Activity (Saccharomyces cerevisiae [6]) of 3.61 and an inhibition at 800 µM (Saccharomyces cerevisiae [7]) of 18.7%. The Activity (Saccharomyces cerevisiae [20]) was 1, the Activity (Saccharomyces cerevisiae [24]) was 0.28 and the inhibition at 1600 µM (Saccharomyces cerevisiae [30]) was 38.3%. The Activity (Saccharomyces cerevisiae [35]) was 2.74, the inhibition at 3200 µM (Saccharomyces cerevisiae [42]) was 77.5% and the inhibition at 5000 µM (Saccharomyces cerevisiae [1]) was 18.8%.
